The text below walks through data of patent publication US20080152640A1, “Means and Methods For Treating a Disease Which is Associated With an Excess Transport of Hyaluronan Across a Lipid Bilayer” (priority 2003, published 2008).

One data set relates to human fibroblasts. The experiment in a line: Hyaluronan production of human fibroblasts (ELISA of culture medium). In kind it is cell-based. The conditions noted are these: for IC50: read-out: HA production (IC50); for hyaluronan in culture medium: human skin fibroblasts / fibroblast cell line, increasing concentrations, 3 days.
Data set [1] concerns human synovial fibroblasts. As to the kind of experiment: Growth of human synovial fibroblasts. It is filed as cell-based.
The next data set deals with membranes from HT29. As to the kind of experiment: Hyaluronan transport activity in isolated membranes from HT29. In kind it is biochemical, human.
For another data set, the system named is human skin fibroblasts. The experiment in a line: Proliferation of human skin fibroblasts (cell counting). The conditions noted are these: for IC50: read-out: Proliferation (IC50). In kind it is cell-based. On the procedure:
Human fibroblasts were grown in […] in Dulbecco's modified Eagles medium supplemented with streptomycin/penicillin (100 units of each/ml), kanamycin (100 units/ml) and 10% foetal calf serum. Cell proliferation was determined by cell counting after trypsinisation three days after seeding.

The test system of data set [2] is human synovial fibroblasts. The experiment in a line: Hyaluronan production of human synovial fibroblasts. In kind it is cell-based.
A further data set has as its system hyaluronan synthase. The conditions noted are these: for hyaluronan transport / synthase activity in membranes: membranes from human fibroblasts; for IC50: read-out: HA synthase activity (IC50), membranes of human fibroblasts.
The next data set has as its system hyaluronan transport. The experiment in a line: Inhibition of hyaluronan transport (export) from human fibroblasts, discussion of Example 9. The conditions noted are these: for inhibition of hyaluronan transport (words): human fibroblasts.
Data set [3] concerns osteoarthritic cartilage in rat knee joints. The experiment in a line: Iodoacetate rat model of osteoarthritis, proteoglycan loss in knee cartilage. It is filed as in vivo. How it is done: Osteoarthritic damage was induced in the left knees iodoacetate into the synovial cavity. The right knees remained untreated and served as controls. Three rates were feed with normal drinking water and three with drinking water containing Verapamil. After 17 days the rats were sacrificed and the articular cartilage was analysed histologically. Acid polysaccharides were stained with alcian blue and the preparation was counterstained with nuclear fast red.
The animal trials were performed in accordance with the guidelines of the local ethical committee. Osteoarthritic damage was induced in the left knees of 6 Wistar rats by injection of a solution of 50 μl of 10 mM iodoacetate into the synovial cavity. […] After 17 days the rats were sacrificed and the articular cartilage was analysed histologically. […]
Male Wistar rats (Charles River, Sulzfeld, Germany) having a body weight of 150 g were fed on ordinary laboratory diet and were housed in cages with a floor area of 800 cm^2. […] After 21 days, the rats were sacrificed and the articular cartilage was analysed by histology. […] Digital photos were taken and the blue colour of the proteoglycans was quantitatively evaluated by the free Scion Image Software. To eliminate staining artefacts, the staining of proteoglycans on the joint surface was related to the staining density at the […] and expressed as percent. […]

The subject of another data set is HT29. As to the kind of experiment: Hyaluronan production of colon carcinoma cell line HT29 (versus HT29-mdr). The conditions noted are these: increasing concentrations.
The target of a further data set is MRP2 (Homo sapiens, UniProt Q92887). The conditions noted are these: cited from earlier work.
The next data set has as its target MRP3 (Homo sapiens, UniProt O15438). The conditions noted are these: cited from earlier work.
A further data set has as its target MRP5 (Homo sapiens, UniProt O15440). The conditions noted are these: cited from earlier work.
The target of the next data set is MRP1 (Homo sapiens, UniProt P33527). The conditions noted are these: cited from earlier work.
Another data set deals with T1, MRP4 (Homo sapiens, UniProt O15439).
T1 sequence (O15439 1-1325): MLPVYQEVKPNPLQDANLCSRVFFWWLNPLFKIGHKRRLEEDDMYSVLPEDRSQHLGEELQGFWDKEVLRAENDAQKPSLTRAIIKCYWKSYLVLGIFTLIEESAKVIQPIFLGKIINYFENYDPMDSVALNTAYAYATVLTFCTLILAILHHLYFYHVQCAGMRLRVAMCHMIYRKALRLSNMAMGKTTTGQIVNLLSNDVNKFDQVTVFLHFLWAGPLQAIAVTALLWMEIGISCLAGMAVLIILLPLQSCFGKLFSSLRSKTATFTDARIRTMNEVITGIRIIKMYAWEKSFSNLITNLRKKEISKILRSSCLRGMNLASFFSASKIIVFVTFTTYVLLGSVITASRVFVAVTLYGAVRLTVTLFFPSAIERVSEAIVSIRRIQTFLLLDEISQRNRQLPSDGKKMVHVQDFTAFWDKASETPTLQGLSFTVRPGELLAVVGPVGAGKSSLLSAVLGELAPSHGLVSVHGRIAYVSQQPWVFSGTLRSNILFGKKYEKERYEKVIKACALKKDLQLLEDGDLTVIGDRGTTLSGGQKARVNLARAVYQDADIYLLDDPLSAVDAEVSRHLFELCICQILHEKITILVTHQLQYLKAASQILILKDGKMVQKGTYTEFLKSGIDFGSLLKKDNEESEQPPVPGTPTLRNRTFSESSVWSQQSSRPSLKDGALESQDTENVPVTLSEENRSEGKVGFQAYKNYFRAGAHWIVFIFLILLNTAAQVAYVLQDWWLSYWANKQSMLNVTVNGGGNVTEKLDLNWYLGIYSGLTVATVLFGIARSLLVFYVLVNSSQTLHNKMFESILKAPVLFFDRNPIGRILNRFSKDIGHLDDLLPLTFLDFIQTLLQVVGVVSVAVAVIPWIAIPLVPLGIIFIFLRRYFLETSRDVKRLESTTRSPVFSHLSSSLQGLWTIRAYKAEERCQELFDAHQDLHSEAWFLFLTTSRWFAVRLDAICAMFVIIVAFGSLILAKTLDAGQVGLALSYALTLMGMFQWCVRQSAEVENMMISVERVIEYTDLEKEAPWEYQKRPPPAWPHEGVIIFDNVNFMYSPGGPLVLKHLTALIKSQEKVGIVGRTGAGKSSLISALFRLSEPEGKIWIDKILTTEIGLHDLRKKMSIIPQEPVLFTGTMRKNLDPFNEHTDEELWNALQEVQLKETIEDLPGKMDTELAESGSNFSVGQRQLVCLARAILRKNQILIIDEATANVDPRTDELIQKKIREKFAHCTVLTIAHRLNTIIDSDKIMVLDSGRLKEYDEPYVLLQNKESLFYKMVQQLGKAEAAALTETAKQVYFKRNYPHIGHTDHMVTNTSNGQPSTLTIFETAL
The conditions noted are these: cited from earlier work.

Data set [4] concerns the target MRP transporters (Homo sapiens, UniProt P33527). The conditions noted are these: read-out: IC50 for MRP transporter; cited from earlier work.
In another data set the target is MDR1 (Homo sapiens, UniProt P08183). The conditions noted are these: cited from earlier work.
The subject of data set [5] is T2, MRP transporters.
T2 construct: other: human erythrocytes
The conditions noted are these: human erythrocytes; cited from earlier work.

The next data set addresses chloride channel. The conditions noted are these: cited from earlier work.
A further data set has as its system ABCA. The conditions noted are these: ABCA1; read-out: IC50, secretion of macrophage inhibitory factor (ABCA1); cited from earlier work.
Where [6] appears, read: Fibroblast, human fibroblasts, culture medium.

Where two headings read alike, the source gives them in different places.

Sequence of MRP1 (P33527 whole entry): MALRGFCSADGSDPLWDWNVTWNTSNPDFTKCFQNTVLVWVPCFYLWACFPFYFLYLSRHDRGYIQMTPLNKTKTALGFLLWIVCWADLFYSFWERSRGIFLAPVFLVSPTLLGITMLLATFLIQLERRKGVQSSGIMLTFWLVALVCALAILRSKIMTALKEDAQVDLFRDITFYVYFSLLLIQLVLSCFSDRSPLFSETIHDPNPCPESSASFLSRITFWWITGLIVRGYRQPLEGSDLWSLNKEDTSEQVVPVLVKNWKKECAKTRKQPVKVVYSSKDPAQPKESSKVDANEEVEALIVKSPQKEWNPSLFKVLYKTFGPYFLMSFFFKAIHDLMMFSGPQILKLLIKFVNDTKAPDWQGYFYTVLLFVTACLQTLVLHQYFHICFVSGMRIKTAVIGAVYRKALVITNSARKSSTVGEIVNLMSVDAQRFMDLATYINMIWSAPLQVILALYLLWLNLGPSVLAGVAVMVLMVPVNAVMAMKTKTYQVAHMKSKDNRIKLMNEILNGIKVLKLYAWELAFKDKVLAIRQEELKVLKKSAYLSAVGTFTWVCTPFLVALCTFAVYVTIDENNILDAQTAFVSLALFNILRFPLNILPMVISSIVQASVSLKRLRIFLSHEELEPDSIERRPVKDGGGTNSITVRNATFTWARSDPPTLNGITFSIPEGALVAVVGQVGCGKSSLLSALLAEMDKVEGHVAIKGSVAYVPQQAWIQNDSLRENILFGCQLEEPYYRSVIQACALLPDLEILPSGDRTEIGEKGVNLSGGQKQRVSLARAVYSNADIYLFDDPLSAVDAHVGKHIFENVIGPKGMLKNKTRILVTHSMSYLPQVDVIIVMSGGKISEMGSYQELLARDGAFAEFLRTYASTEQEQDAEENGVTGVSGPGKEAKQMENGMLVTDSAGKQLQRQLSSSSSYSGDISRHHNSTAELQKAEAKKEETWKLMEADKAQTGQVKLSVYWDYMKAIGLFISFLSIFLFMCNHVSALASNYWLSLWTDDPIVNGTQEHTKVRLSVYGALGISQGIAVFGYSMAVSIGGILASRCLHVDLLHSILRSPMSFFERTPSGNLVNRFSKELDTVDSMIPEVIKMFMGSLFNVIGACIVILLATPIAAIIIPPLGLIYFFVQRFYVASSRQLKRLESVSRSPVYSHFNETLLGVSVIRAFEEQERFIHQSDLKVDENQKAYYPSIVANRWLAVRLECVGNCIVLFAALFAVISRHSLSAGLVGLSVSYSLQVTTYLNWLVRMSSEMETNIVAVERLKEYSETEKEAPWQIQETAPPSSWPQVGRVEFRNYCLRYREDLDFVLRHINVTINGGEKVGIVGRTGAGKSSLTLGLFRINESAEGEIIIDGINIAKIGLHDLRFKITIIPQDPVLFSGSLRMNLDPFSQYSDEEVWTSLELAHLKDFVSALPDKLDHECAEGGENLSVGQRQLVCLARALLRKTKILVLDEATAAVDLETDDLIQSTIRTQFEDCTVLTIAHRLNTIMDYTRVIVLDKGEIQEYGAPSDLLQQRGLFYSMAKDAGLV
Sequence of MDR1 (P08183 whole entry): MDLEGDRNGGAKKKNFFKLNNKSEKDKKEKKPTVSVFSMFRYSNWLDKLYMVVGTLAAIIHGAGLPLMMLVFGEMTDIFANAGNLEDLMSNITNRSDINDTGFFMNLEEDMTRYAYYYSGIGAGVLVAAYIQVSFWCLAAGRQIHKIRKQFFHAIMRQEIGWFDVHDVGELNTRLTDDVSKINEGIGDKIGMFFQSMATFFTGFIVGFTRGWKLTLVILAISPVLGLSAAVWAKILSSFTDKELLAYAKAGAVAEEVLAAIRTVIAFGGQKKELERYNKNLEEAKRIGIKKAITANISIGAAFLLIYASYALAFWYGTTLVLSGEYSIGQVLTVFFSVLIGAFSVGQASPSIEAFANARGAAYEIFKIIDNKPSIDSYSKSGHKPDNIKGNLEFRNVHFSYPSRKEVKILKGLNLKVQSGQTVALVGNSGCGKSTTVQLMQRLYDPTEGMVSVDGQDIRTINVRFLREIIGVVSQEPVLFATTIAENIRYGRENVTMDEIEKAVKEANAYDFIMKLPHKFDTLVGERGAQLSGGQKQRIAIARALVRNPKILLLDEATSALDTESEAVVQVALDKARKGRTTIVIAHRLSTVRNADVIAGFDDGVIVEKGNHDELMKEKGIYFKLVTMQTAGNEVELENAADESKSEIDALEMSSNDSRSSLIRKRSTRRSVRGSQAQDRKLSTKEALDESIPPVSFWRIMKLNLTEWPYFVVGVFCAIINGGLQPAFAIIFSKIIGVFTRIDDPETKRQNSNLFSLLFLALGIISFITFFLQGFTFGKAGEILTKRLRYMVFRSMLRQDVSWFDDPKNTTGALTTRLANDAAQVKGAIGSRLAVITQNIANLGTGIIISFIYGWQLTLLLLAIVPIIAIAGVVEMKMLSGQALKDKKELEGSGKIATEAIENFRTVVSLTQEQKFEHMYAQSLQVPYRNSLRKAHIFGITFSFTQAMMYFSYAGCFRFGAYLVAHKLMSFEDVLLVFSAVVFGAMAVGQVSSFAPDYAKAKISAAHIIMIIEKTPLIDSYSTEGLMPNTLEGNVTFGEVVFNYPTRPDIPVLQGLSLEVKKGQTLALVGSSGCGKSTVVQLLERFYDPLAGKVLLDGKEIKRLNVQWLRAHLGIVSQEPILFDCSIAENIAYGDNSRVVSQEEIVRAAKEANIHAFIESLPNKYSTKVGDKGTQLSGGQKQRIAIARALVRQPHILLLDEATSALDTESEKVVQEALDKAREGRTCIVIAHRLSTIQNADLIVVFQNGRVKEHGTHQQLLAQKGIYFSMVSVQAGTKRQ
Sequence of MRP5 (O15440 whole entry): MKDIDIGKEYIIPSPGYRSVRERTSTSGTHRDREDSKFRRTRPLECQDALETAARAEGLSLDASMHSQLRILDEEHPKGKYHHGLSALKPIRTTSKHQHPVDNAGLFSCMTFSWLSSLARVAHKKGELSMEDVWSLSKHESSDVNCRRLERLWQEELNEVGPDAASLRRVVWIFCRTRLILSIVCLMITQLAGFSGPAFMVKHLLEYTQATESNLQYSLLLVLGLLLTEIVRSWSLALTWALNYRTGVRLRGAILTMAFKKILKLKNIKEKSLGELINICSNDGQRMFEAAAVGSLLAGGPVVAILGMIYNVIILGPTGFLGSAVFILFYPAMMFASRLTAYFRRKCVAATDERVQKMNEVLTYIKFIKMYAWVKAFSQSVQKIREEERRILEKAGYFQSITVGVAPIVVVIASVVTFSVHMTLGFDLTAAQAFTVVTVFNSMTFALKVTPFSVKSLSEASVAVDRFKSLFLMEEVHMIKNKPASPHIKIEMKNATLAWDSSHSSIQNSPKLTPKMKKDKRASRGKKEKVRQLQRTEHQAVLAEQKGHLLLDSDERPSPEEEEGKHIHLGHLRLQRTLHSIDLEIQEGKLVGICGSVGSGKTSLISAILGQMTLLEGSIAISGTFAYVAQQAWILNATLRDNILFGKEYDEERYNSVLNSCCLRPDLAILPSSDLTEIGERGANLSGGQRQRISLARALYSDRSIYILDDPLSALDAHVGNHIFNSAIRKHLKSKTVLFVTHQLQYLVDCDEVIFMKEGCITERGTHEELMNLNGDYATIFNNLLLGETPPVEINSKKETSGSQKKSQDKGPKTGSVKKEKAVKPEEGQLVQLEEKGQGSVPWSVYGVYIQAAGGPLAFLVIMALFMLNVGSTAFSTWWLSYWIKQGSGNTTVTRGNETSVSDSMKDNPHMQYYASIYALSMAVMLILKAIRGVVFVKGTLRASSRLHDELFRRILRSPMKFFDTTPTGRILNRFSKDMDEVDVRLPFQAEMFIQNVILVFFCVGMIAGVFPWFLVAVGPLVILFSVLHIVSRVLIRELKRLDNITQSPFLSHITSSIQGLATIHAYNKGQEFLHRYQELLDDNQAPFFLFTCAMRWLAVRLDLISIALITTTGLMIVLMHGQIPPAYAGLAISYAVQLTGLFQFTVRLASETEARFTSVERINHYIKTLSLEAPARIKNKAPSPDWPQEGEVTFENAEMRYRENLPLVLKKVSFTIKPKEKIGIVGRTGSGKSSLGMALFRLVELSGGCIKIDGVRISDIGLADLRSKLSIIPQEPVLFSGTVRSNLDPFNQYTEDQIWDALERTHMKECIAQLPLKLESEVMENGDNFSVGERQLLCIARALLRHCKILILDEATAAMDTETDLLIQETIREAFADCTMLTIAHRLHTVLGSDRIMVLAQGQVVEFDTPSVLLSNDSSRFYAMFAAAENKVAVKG
Sequence of MRP transporters (Homo sapiens, UniProt P33527) (P33527 whole entry): as the sequence (P33527 whole entry) above

For `COc1ccc(CCN(C)CCCC(C#N)(c2ccc(OC)c(OC)c2)C(C)C)cc1OC` (centres unmarked) [Verapamil], the IC50 was 15 µM with human fibroblasts (Homo sapiens, Fibroblast); 20 µM with human skin fibroblasts (Homo sapiens, Skin fibroblast); ~50 µM with hyaluronan synthase; ~50 µM in the data set on hyaluronan transport (Homo sapiens, Fibroblast, read-out: IC50 for hyaluronan transport (export)). For the same compound, in the data set on human fibroblasts, the “hyaluronan in culture medium” value is reported as “reduced”. The “growth of human synovial fibroblasts” value in [1] is recorded as “inhibited growth”. Besides, the “hyaluronan transport activity in membranes, sensitive cell line HT29” value in the data set on membranes from HT29 was “inhibition is not complete”. Also, the “cell growth” value in the data set with human skin fibroblasts (human skin fibroblasts, increasing concentrations, 3 days) is on record as “reduced”. The “hyaluronan production of human synovial fibroblasts” value in data set [2] is recorded as “inhibited”. In the data set with hyaluronan synthase, the “hyaluronan transport / synthase activity in membranes” value is listed as “blocked the hyaluronan transport in a concentration dependent manner”. In addition, the “inhibition of hyaluronan transport (words)” value (“inhibition … (words)” below) in the data set with hyaluronan transport was “inhibited also hyaluronan synthesis”. For the same compound, the “protection from proteoglycan loss” value is “completely protected from proteoglycan loss” in data set [3] (administered at the day of injury or three days later, analysed after 21 days) and “partially prevent proteoglycan loss” in data set [3] (treatment started later than three days, up to 21 days after injury). In addition, the “hyaluronan transport in HT29 compared with HT29-mdr” value in the data set on HT29 was “more efficiently blocked hyaluronan transport in HT29 than in HT29-mdr”.

Take `CN(Cc1cnc2nc(N)nc(N)c2n1)c1ccc(C(=O)N[C@@H](CCC(=O)O)C(=O)O)cc1` [methotrexate]: the IC50 was ~200 µM in the data set on human fibroblasts (setting [6]); ~200 µM in the data set with human skin fibroblasts (Homo sapiens, Skin fibroblast); > 400 µM with hyaluronan synthase. Also, the “published inhibitory concentrations IC50 or Ki, MRP2” value on MRP2 was “substrate”. For the same compound, the “hyaluronan transport / synthase activity in membranes” value with hyaluronan synthase is on record as “did not inhibit”. Besides, the “inhibition … (words)” value with hyaluronan transport is “did not inhibit”. Moreover, the “published inhibitory concentrations IC50 or Ki, MRP3” value at MRP3 is listed as “substrate”. The “published inhibitory concentrations IC50 or Ki, MRP5” value at MRP5 is “no”. In addition, the “published inhibitory concentrations IC50 or Ki, MRP1” value on MRP1 is listed as “substrate”. Besides, the “published inhibitory concentrations IC50 or Ki, MRP4” value on MRP4 is recorded as “substrate”.

As to `COc1ccc2c(c1)c(CC(=O)O)c(C)n2C(=O)c1ccc(Cl)cc1` [Indomethacin], the IC50 in the data set with human fibroblasts (setting [6]) is 50 µM; at MRP transporters [4] it was 10 to 20 µM; with human skin fibroblasts (Homo sapiens, Skin fibroblast), 200 µM; in the data set on hyaluronan synthase it was 10 µM; at MDR1 (read-out: IC50 for MDR1) it was > 800 µM; on MDR1 (read-out: published inhibitory concentrations IC50 or Ki, MDR1), > 800 µM. Moreover, the IC50 at MRP5 (read-out: published inhibitory concentrations IC50 or Ki, MRP5) is > 100 µM; on MRP5 (substrate S-(2,4-dinitrophenyl)glutathione, read-out: IC50, MRP5 mediated transport of S-(2,4-dinitrophenyl)glutathione), > 100 µM; on MRP1 (read-out: IC50, transport of 17β-glucuronosyl-estradiol by MRP1, substrate 17β-glucuronosyl-estradiol), ~50 µM. For the same compound, the “inhibition … (words)” value in the data set with hyaluronan transport is “very good inhibition”; with hyaluronan transport (listed as indomethacin), “inhibited hyaluronan transport”.

For orientation: Ki means a dissociation constant, usually derived from enzyme kinetics or from competition with a known ligand. On to `O=S(=O)(O)c1cc(N=C=S)ccc1C=Cc1ccc(N=C=S)cc1S(=O)(=O)O` [DIDS, 4,4-diisothiocyanatostilbene-2,2-disulfonic acid], for which the IC50 in the data set with human fibroblasts (human fibroblasts, culture medium) was 50 µM; in the data set with MRP transporters [5], 150 to 300 µM; with human skin fibroblasts (human fibroblasts), 250 µM; in the data set on hyaluronan synthase it was > 400 µM; at MRP1 it was 150 to 300 µM; on MRP4 it was 150 to 300 µM. The Ki at chloride channel is 0.84 µM. Besides, the “decrease of hyaluronan transport activity” value in the data set on hyaluronan synthase (membranes from human fibroblast cell line) was found to be 70%. Moreover, the “inhibition … (words)” value in the data set on hyaluronan transport is “partially”.

In general, inhibition refers to the share of the control response that was lost under treatment. With `COc1ccc(Cl)cc1C(=O)NCCc1ccc(S(=O)(=O)NC(=O)NC2CCCCC2)cc1` [Glyburide], the IC50 with human fibroblasts (setting [6]) is ~400 µM; with human skin fibroblasts (Homo sapiens, Skin fibroblast), 7 µM; with ABCA it was ~5 µM; with hyaluronan synthase, 120 µM; at MRP4 (read-out: IC50, MRP4 mediated transport of cGMP, substrate cGMP, human erythrocytes) it was 1.9 µM. Moreover, in the data set with human fibroblasts (Homo sapiens, Fibroblast, even at 400 μM, read-out: inhibition of hyaluronan secretion), the inhibition at 400 µM is ≤ 50%. For the same compound, in the data set on human fibroblasts, the “hyaluronan in culture medium” value is given as “partially inhibited”. Moreover, on MDR1 (substrate colchicine), the “concentration inhibiting MDR1 mediated export of colchicine” value is “about 100 μM”.

Regarding `CCCCCCCCCCSC[C@H](NC(=O)CC[C@H](N)C(=O)O)C(=O)NCC(=O)O` [S-decylglutathione], the results for the IC50 in the data set with human fibroblasts (setting [6]) and in the data set on hyaluronan synthase were 7 µM and 40 µM, respectively. The “published inhibitory concentrations IC50 or Ki, MRP2” value on MRP2 was “good”. Further, the “inhibition … (words)” value with hyaluronan transport is on record as “very good inhibitor”. Further, the “published inhibitory concentrations IC50 or Ki, MRP3” value at MRP3 is listed as “low”. In addition, the “published inhibitory concentrations IC50 or Ki, MRP5” value at MRP5 is given as “good”. At MRP4, the “published inhibitory concentrations IC50 or Ki, MRP4” value is recorded as “good”.
